Measurements taken from patent US6630125B2, “18F-labeled choline analogs” (priority 2000, dated 2003).
Like-named read-outs stand apart in the source and are kept apart here.

What was measured:
[1] = test system: PC-3 human prostate cancer cells; assay: Accumulation of radiotracers by cultured PC-3 cells; assay type: cell-based; conditions: for Uptake by PC-3 cancer cells, HC-3: 5 mM hemicholinium-3; for accumulation by cultured PC-3 cells compared with other tracers: control conditions; for Uptake by PC-3 cancer cells, Control: 2 hr incubation
Experimental: The incubation media utilized for the experiments differed according to the cancer cell type (Table 1). On the day of the study, the medium was refreshed using a volume of 1 ml in each well. Cells were incubated in control conditions or with the addition of metabolic and growth factor receptor inhibitors to test the sensitivity of uptake of the radiotracers to specific inhibitions. […] Following a 30-min incubation period, the radiotracers (e.g., FDG or FCH) were added (˜2 µCi/well) and the cells were incubated for 2 hr. The cells were washed three times with phosphate buffered saline solution, released from the plates by briefly incubating with 0.05% trypsin in DMEM, transferred to test tubes, and counted for F-18 radioactivity in a gamma counter. The amount of radioactivity in the cells was normalized by the dose administered to each well.
The present work studies the structure-activity relationships for purposes of optimization of the molecule for imaging prostate cancer. […] A number of structural analogs of choline were labeled as N-[^18F]fluoromethyl derivatives via the intermediate [^18F]fluorobromomethane (see Table 3). Uptake of the radiotracers was assessed in cultured PC-3 human prostate cancer cells and in a murine PC-3 xenograft model.

[2] = test system: mice with PC-3 xenografts; conditions: for tumor uptake: PC-3 xenograft
Experimental: Body weight and tumor volume were measured weekly and tumor volume (mm3) was calculated using the formula S2×L/2, where S and L represent the small and large diameters of the tumor, respectively.
A prescribed duration of time was allowed before procurement of heart, liver, lung, blood, kidney, bone (femur), brain (whole), prostate gland, tumor, bladder, and skeletal muscle. The tissues were weighed, and counted for ^18F in a gamma counter, then dissolved in Solvable (Dupont, Boston Mass.) and counted for ^14C in a liquid scintillation counter. For the bladder, the percentage of the injected dose in the urine was determined. For all other tissues, radiotracer uptake was calculated as: […]

[3] = test system: patients with prostate cancer; assay: PET imaging in patients with prostate cancer; conditions: Example 11 patient, metastatic prostate cancer
Experimental: The distribution of FCH in PET imaging studies was evaluated in 14 patients with prostate cancer, 14 patients with breast cancer, and 5 patients with brain tumors. Imaging was performed using the Advance PET scanner (GE Medical Systems, Milwaukee, Wis.). […] In prostate cancer patients, a transmission scan of the pelvic region was obtained before administration of radiotracer. FCH (2.5-5 mCi) was administered intravenously, and dynamic imaging of the pelvis region was commenced for 20-30 min. During image reconstruction, the emission data in the pelvic region were corrected for photon attenuation using the transmission scan. Immediately following the dynamic scan, a whole-body emission scan was performed without transmission scanning for attenuation correction. The images were reconstructed using an Ordered Subset Expectation Maximum (OS-EM) algorithm. Regions-of-interest were drawn manually on the attenuation corrected images for evaluation of FCH kinetics in tissues. Standardized uptake values of FCH uptake in tissues were calculated using the attenuation-corrected images according to the equation: [formula]
Patient 2: Transmission and FCH emission scans of a person with hormone naive clinical stage T2 prostate cancer were commenced over the lower pelvis.
The same patient was scanned with FDG within the same week (FIG. 8).
Patient 4: A person with a history of clinical stage T3b prostate cancer treated by radical retropubic prostatectomy was diagnosed with metastatic disease by bone scan. FCH-PET imaging was performed before and after initiating androgen deprivation therapy. In the first study, whole-body emission scanning was started 5 min after injection, beginning at the pelvic region in order to image the pelvis and prostatic bed before arrival of urinary radioactivity. […] The patient was rescanned 2 weeks after initiating androgen deprivation therapy.
Patient 5: A person was initially diagnosed five years prior with locally advanced clinical stage T3NOMO prostate cancer and underwent radical prostatectomy followed by external beam radiation to the prostate bed. […] The patient was then treated with Zolex and Casodex.

yeast choline kinase = target: T1, yeast choline kinase (Saccharomyces cerevisiae, UniProt P20485); assay: In vitro phosphorylation by yeast choline kinase; assay type: biochemical; conditions: 1 μM choline; for In vitro phosphorylation: 25 mU/ml yeast choline kinase, 23° C., 10 min, n = 5
T1 sequence (P20485 1-582): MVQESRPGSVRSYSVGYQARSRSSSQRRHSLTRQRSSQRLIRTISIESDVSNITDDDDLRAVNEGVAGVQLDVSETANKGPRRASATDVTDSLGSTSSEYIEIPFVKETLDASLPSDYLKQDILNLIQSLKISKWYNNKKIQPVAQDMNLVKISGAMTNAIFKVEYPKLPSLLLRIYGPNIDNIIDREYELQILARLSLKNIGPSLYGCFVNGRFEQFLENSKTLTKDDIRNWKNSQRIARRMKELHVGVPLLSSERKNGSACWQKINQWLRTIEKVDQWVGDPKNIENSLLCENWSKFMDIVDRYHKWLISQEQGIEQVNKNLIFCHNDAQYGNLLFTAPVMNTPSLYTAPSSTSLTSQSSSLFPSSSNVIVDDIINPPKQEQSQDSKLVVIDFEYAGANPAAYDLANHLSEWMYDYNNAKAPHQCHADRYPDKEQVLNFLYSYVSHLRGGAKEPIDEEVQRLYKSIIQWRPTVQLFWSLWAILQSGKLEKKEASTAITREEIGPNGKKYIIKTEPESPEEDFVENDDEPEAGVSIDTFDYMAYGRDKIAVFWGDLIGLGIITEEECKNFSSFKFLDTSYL
Experimental: The test tube was gently agitated throughout the incubation period. The reaction was stopped by placing the tube in a boiling water bath for 2 min. To serve as controls, some samples were placed directly in the boiling water bath after addition of all substrates. […] The percentage of radioactivity converted to the phosphorylated form was calculated.

[4] = inhibitor HC-3 (hemicholinium-3, 5 mM)

For `[2H]C([2H])(O)C[N+](C)(C[18F])CCC` (stereo not shown) [propyl - D], the “Uptake by PC-3 cells” value ([1]; inhibitor none) was 1.864 ± 0.307 % dose/2 hr/10^5 cells plated.

For `[2H]C([2H])(O)CC[N+](C)(C)C[18F]` [propanol - D], the “Uptake by PC-3 cells” value [1] was 0.763 ± 0.065 % dose/2 hr/10^5 cells plated.

`C=CC[N+](C)(C[18F])CCO` (stereo not shown) [Allyl] was tested, and the “Uptake by PC-3 cells” value [1, 4] was 0.11 ± 0.01 % dose/2 hr/10^5 cells plated and the “Uptake by PC-3 cells” value ([1]; inhibitor none) was 4.45 ± 0.46 % dose/2 hr/10^5 cells plated.

In the case of `CC[N+](C)(C[18F])CCCO` (stereo not shown) [Ethyl-Prop.], the “Uptake by PC-3 cells” value ([1]; inhibitor none) is reported as 0.285 ± 0.023 % dose/2 hr/10^5 cells plated.

With `[2H]C([2H])(O)C[N+](C)(CC)C[18F]` (stereo not shown) [FEDC] the “Uptake by PC-3 cells” value ([1]; inhibitor none) was 0.720 ± 0.065 % dose/2 hr/10^5 cells plated.

`CC[N+](CC)(C[18F])CCO` [Diethyl] was tested, and the “Uptake by PC-3 cells” value ([1]; inhibitor none) was 0.503 ± 0.091 % dose/2 hr/10^5 cells plated.

With `CCCCC[N+](C)(C[18F])CCO` (stereo not shown) [Pentyl] the “Uptake by PC-3 cells” value ([1]; inhibitor none) was 0.073 ± 0.007 % dose/2 hr/10^5 cells plated.

With `CCC[N+](C)(C[18F])CCCO` (stereo not shown) [Propyl-prop.] the “Uptake by PC-3 cells” value ([1]; inhibitor none) was 0.234 ± 0.050 % dose/2 hr/10^5 cells plated.

With `C#CC[N+](C)(C[18F])CCO` (stereo not shown) [FPP] the “Uptake by PC-3 cells” value ([1]; inhibitor none) was 7.90 ± 0.53 % dose/2 hr/10^5 cells plated.

In the case of `C[N+](C)(C[18F])CCCO` [FHC, [^18F]fluorohomocholine], the tumor uptake [2] is reported as ~0.07 % dose kg/g, the “uptake in cultured PC-3 cells” value [1] is reported as ~2 %/hr/100,000 cells plated and the “Uptake by PC-3 cells” value ([1]; inhibitor none) is reported as 1.635 ± 0.306 % dose/2 hr/10^5 cells plated.

`C[N+](C[18F])(CCO)CCO` [Diethanol] was tested, and the “Uptake by PC-3 cells” value ([1]; inhibitor none) was 0.462 ± 0.083 % dose/2 hr/10^5 cells plated.

`OCC[N+]1(C[18F])CCCCC1` [cyclic 6N] was tested, and the “Uptake by PC-3 cells” value ([1]; inhibitor none) was 0.144 ± 0.014 % dose/2 hr/10^5 cells plated.

With `[2H]C([2H])(O)C[N+](C)(C)C[18F]` [FDC] the “SUV of osseous lesion (pubic ramus)” value [3] was 11.7, the “Tumor:muscle ratio” value ([2]; 60 min after injection) was “highest” and the “tumor:blood ratio” value ([2]; 60 min after injection) was “highest”. For the same compound, the “Uptake by PC-3 cells” value ([1]; inhibitor none) was 2.410 ± 0.144 % dose/2 hr/10^5 cells plated.

`C[N+](C)(C[18F])CCCCO` [Butanol] was tested, and the “Uptake by PC-3 cells” value [1] was 0.140 ± 0.042 % dose/2 hr/10^5 cells plated.

In the case of `OCC[N+]1(C[18F])CCCC1` [cyclic 5N], the “Uptake by PC-3 cells” value ([1]; inhibitor none) is reported as 0.355 ± 0.028 % dose/2 hr/10^5 cells plated.

`OCC[N+]1(C[18F])CCOCC1` [cyclic 6NO] was tested, and the “Uptake by PC-3 cells” value ([1]; inhibitor none) was 0.399 ± 0.014 % dose/2 hr/10^5 cells plated.

With `C[N+](C)(CCO)CCC[18F]` [FPC, [^18F]fluoropropylcholine] the “phosphorylation rate, less than for FCH” value (yeast choline kinase) was ~60%, the In vitro phosphorylation (yeast choline kinase) was 22.1 ± 3.1 % and the “Uptake by PC-3 cancer cells, HC-3” value [1] was 0.76 ± 0.20 % dose/2 hr/105 cells plated. For the same compound, the “decrease in uptake by PC-3 cells with hemicholinium-3 (HC-3)” value ([1]; HC-3 versus control) was 41%, the “accumulation by cultured PC-3 cells compared with other tracers” value [1] was “not significantly different from that of FCH” and the “Uptake by PC-3 cancer cells, Control” value [1] was 1.29 ± 0.28 % dose/2 hr/105 cells plated.

With `CC(C)C[N+](C)(C[18F])CCO` (stereo not shown) [Isobutyl] the “Uptake by PC-3 cells” value ([1]; inhibitor none) was 2.74 ± 0.09 % dose/2 hr/10^5 cells plated.

With `CCCC[N+](C)(C[18F])CCO` (stereo not shown) [Butyl] the “Uptake by PC-3 cells” value ([1]; inhibitor none) was 0.153 ± 0.021 % dose/2 hr/10^5 cells plated.

With `CC[N+](C)(C[18F])CCO` (stereo not shown) [FEtC, [^18F]fluoromethylethylcholine] the “phosphorylation rate compared with CH” value (yeast choline kinase) was “equivalent to CH”, the In vitro phosphorylation (yeast choline kinase) was 55.2 ± 6.6% and the tumor uptake [2] was ~0.07 % dose kg/g. For the same compound, the “uptake in cultured PC-3 cells” value [1] was ~2 %/hr/100,000 cells plated, the “Uptake by PC-3 cancer cells, HC-3” value [1] was 0.12 ± 0.02 % dose/2 hr/105 cells plated and the “accumulation by cultured PC-3 cells compared with other tracers” value [1] was “higher than HARA-1 (p<0.05), but lower than FCH”. The “Uptake by PC-3 cancer cells, Control” value [1] was 0.74 ± 0.04 % dose/2 hr/105 cells plated, the “Uptake by PC-3 cells” value [1, 4] was 0.122 ± 0.016 % dose/2 hr/10^5 cells plated and the “Uptake by PC-3 cells” value ([1]; inhibitor none) was 0.741 ± 0.041 % dose/2 hr/10^5 cells plated.

`CC(O)C[N+](C)(C)C[18F]` (stereo not shown) [Tracer 1-methyl] was tested, and the “Uptake by PC-3 cells” value ([1]; inhibitor none) was 0.202 ± 0.021 % dose/2 hr/10^5 cells plated.

With `C[N+](C[18F])(CCO)Cc1ccccc1` (stereo not shown) [benzyl] the “Uptake by PC-3 cells” value ([1]; inhibitor none) was 0.202 ± 0.009 % dose/2 hr/10^5 cells plated.

For `CCC(C)[N+](C)(C[18F])CCO` (stereo not shown) [Sec-butyl], the “Uptake by PC-3 cells” value ([1]; inhibitor none) was 0.28 ± 0.01 % dose/2 hr/10^5 cells plated.

With `CCC[N+](C)(C[18F])CCO` (stereo not shown) [FPrC] the tumor uptake [2] was ~0.07 % dose kg/g, the “uptake in cultured PC-3 cells” value [1] was ~2 %/hr/100,000 cells plated and the “Uptake by PC-3 cells” value [1, 4] was 0.062 ± 0.001 % dose/2 hr/10^5 cells plated. For the same compound, the “Uptake by PC-3 cells” value ([1]; inhibitor none) was 1.877 ± 0.115 % dose/2 hr/10^5 cells plated.

In the case of `CC(CO)[N+](C)(C)C[18F]` (stereo not shown) [Tracer 2-methyl], the “Uptake by PC-3 cells” value ([1]; inhibitor none) is reported as 0.182 ± 0.016 % dose/2 hr/10^5 cells plated.

With `OCC[N+](C[18F])(CCO)CCO` [triethanol] the “Uptake by PC-3 cells” value ([1]; inhibitor none) was 0.170 ± 0.045 % dose/2 hr/10^5 cells plated.

`C[N+]1(C[18F])CCCC(O)C1` (stereo not shown) [cyclic N—OH] was tested, and the “Uptake by PC-3 cells” value ([1]; inhibitor none) was 0.077 ± 0.011 % dose/2 hr/10^5 cells plated.
